# In ChEMBL document CHEMBL3885861, “Open TG-GATES”:
# Species: Rattus norvegicus
# Assay: Open TG-GATES - Regimen: Single
# Format: toxicity, organism-based, Sprague-Dawley
# Set-up: regimen Single, gender Male, age 6 weeks
# Conditions: in vivo, iv, 300 mg/kg, route intravenous injection, dose level Low; for APTT / Bas / Eos / Fbg / Hb / Ht / Lym / MCH / MCHC / MCV / Mono / PT / Plat / RBC / Ret / WBC: tissue Blood; for KIDNEY_L / KIDNEY_R / KIDNEY_TOTAL: tissue Kidney; for LIVER: tissue Liver; for ALP / ALT / AST / BUN / CRE / Ca / Cl / DBIL / GLC / IP / K / LDH / Na / PL / RALB / TBIL / TC / TG / TP / gamma-GTP: tissue Plasma
smiles,measurement,setting,value
CC(=O)OCC1=C(C(=O)O)N2C(=O)[C@@H](NC(=O)Cc3cccs3)[C@H]2SC1 [CEPHALOTHIN],TERMINAL_BW,3 h,215.7 g
same,APTT,3 h,21.9 s
same,Bas,3 h,0%
same,Eos,3 h,0.6%
same,Fbg,3 h,294.6 mg/dL
same,Hb,3 h,13 g/dL
same,Ht,3 h,38.4%
same,Lym,3 h,75.4%
same,MCH,3 h,21.3 pg
same,MCHC,3 h,33.8%
same,MCV,3 h,62.9 fL
same,Mono,3 h,2.6%
same,PT,3 h,16.4 s
same,Plat,3 h,128.8 x10_4/uL
same,RBC,3 h,611.6 x10_4/ul
same,Ret,3 h,6.6%
same,WBC,3 h,98.3 x10_2/uL
same,KIDNEY_L,3 h,0.9 g
same,KIDNEY_R,3 h,1 g
same,KIDNEY_TOTAL,3 h,1.9 g
same,LIVER,3 h,9.8 g
same,ALP,3 h,1407.8 IU/L
same,ALT,3 h,49.8 IU/L
same,AST,3 h,87.8 IU/L
same,BUN,3 h,12.4 mg/dL
same,CRE,3 h,0.2 mg/dL
same,Ca,3 h,10.5 mg/dL
same,Cl,3 h,105.8 meq/L
same,DBIL,3 h,0 mg/dL
same,GLC,3 h,179 mg/dL
same,IP,3 h,7.8 mg/dL
same,K,3 h,4.1 meq/L
same,LDH,3 h,204.4 IU/L
same,Na,3 h,142.4 meq/L
same,PL,3 h,135.2 mg/dL
same,RALB,3 h,2.8 g/dL
same,TBIL,3 h,0.016 mg/dL
same,TC,3 h,69.2 mg/dL
same,TG,3 h,92 mg/dL
same,TP,3 h,5.2 g/dL
same,gamma-GTP,3 h,1.4 IU/L
same,TERMINAL_BW,6 h,208.2 g
same,APTT,6 h,22.7 s
same,Bas,6 h,0%
same,Eos,6 h,0.8%
same,Fbg,6 h,278.6 mg/dL
same,Hb,6 h,13.4 g/dL
same,Ht,6 h,38.9%
same,Lym,6 h,78%
same,MCH,6 h,21.3 pg
same,MCHC,6 h,34.4%
same,MCV,6 h,62 fL
same,Mono,6 h,2.6%
same,PT,6 h,16 s
same,Plat,6 h,118.3 x10_4/uL
same,RBC,6 h,627.2 x10_4/ul
same,Ret,6 h,5.9%
same,WBC,6 h,75.8 x10_2/uL
same,KIDNEY_L,6 h,0.9 g
same,KIDNEY_R,6 h,0.9 g
same,KIDNEY_TOTAL,6 h,1.9 g
same,LIVER,6 h,8.9 g
same,ALP,6 h,1320.4 IU/L
same,ALT,6 h,36.8 IU/L
same,AST,6 h,78.4 IU/L
same,BUN,6 h,9.6 mg/dL
same,CRE,6 h,0.2 mg/dL
same,Ca,6 h,10.3 mg/dL
same,Cl,6 h,105.6 meq/L
same,DBIL,6 h,0 mg/dL
same,GLC,6 h,171.6 mg/dL
same,IP,6 h,9 mg/dL
same,K,6 h,4.1 meq/L
same,LDH,6 h,162.4 IU/L
same,Na,6 h,141.6 meq/L
same,PL,6 h,125.4 mg/dL
same,RALB,6 h,2.9 g/dL
same,TBIL,6 h,0.022 mg/dL
same,TC,6 h,66.4 mg/dL
same,TG,6 h,75.2 mg/dL
same,TP,6 h,5.3 g/dL
same,gamma-GTP,6 h,1 IU/L
same,TERMINAL_BW,9 h,211.4 g
same,APTT,9 h,24.2 s
same,Bas,9 h,0%
same,Eos,9 h,1%
same,Fbg,9 h,284 mg/dL
same,Hb,9 h,13.2 g/dL
same,Ht,9 h,38.6%
same,Lym,9 h,81.2%
same,MCH,9 h,21.3 pg
same,MCHC,9 h,34.1%
same,MCV,9 h,62.3 fL
same,Mono,9 h,2%
same,PT,9 h,16.1 s
same,Plat,9 h,135 x10_4/uL
same,RBC,9 h,619.6 x10_4/ul
same,Ret,9 h,6.4%
same,WBC,9 h,77.3 x10_2/uL
same,KIDNEY_L,9 h,1 g
same,KIDNEY_R,9 h,1 g
same,KIDNEY_TOTAL,9 h,1.9 g
same,LIVER,9 h,8.6 g
same,ALP,9 h,1157.8 IU/L
same,ALT,9 h,34.2 IU/L
same,AST,9 h,69 IU/L
same,BUN,9 h,10 mg/dL
same,CRE,9 h,0.1 mg/dL
same,Ca,9 h,10.4 mg/dL
same,Cl,9 h,106.2 meq/L
same,DBIL,9 h,0 mg/dL
same,GLC,9 h,180.8 mg/dL
same,IP,9 h,9.6 mg/dL
same,K,9 h,4.5 meq/L
same,LDH,9 h,128.6 IU/L
same,Na,9 h,141 meq/L
same,PL,9 h,115.8 mg/dL
same,RALB,9 h,2.8 g/dL
same,TBIL,9 h,0.02 mg/dL
same,TC,9 h,60.6 mg/dL
same,TG,9 h,71.2 mg/dL
same,TP,9 h,5.1 g/dL
same,gamma-GTP,9 h,1.4 IU/L
same,TERMINAL_BW,24 h,226.1 g
same,APTT,24 h,22 s
same,Bas,24 h,0%
same,Eos,24 h,0.8%
same,Fbg,24 h,303.8 mg/dL
same,Hb,24 h,13.2 g/dL
same,Ht,24 h,38.9%
same,Lym,24 h,81%
same,MCH,24 h,20.6 pg
same,MCHC,24 h,34%
same,MCV,24 h,60.4 fL
same,Mono,24 h,2.2%
same,PT,24 h,16.7 s
same,Plat,24 h,120 x10_4/uL
same,RBC,24 h,645.2 x10_4/ul
same,Ret,24 h,6%
same,WBC,24 h,89.2 x10_2/uL
same,KIDNEY_L,24 h,1 g
same,KIDNEY_R,24 h,1 g
same,KIDNEY_TOTAL,24 h,2 g
same,LIVER,24 h,10.2 g
same,ALP,24 h,1605.2 IU/L
same,ALT,24 h,53 IU/L
same,AST,24 h,77.6 IU/L
same,BUN,24 h,17 mg/dL
same,CRE,24 h,0.2 mg/dL
same,Ca,24 h,10.6 mg/dL
same,Cl,24 h,105.8 meq/L
same,DBIL,24 h,0 mg/dL
same,GLC,24 h,184.4 mg/dL
same,IP,24 h,7.2 mg/dL
same,K,24 h,4.3 meq/L
same,LDH,24 h,171.6 IU/L
same,Na,24 h,142.4 meq/L
same,PL,24 h,135.6 mg/dL
same,RALB,24 h,2.9 g/dL
same,TBIL,24 h,0.016 mg/dL
same,TC,24 h,70.6 mg/dL
same,TG,24 h,90 mg/dL
same,TP,24 h,5.4 g/dL
same,gamma-GTP,24 h,2 IU/L
